Key:
[1] = tested on: Runx2, Osteocalcin, Msx2; experiment: Real time PCR of osteoblast differentiation mark factors; type: cell-based, mouse; conditions: C3H/10T1/2 treated for 6 days, RTPCR
Method: An aliquot 116V and an aliquot 116VI extracted and partitioned from sponges are dissolved in a DMSO solvent, and used to treat the C3H/10T1/2 cell line, mesenchymal progenitor cells, at concentrations of 1, 2.5, 5, 10, and 20 ug/ml. […] Since then, the same experiment was performed on the compound (1163), the compound 2 (1162), the compound 3 (1161), and the compound 4 (1164), which were purely separated from the aliquots 116V and 116VI, and as a result, it could be confirmed that the osteoblast differentiation ability was increased in the compounds 1, 3, and 4. […] To study a mechanism with respect to osteoblast differentiation ability, the C3H/10T1/2 cell lines were treated with the compound 1 and the compound 4 for 6 days, respectively. […] Also, the C3H/10T1/2 cell lines were treated with the compound 1 and the compound 4 for 6 days, respectively. […] Furthermore, it could be ascertained that combining of Runx2 and TAZ proteins was increased by treatment of the compounds and thus the activity of Runx2-meditated transcription was increased. The compound 5, which is an ester derivative of the compound 1 (1163), was synthesized in order to prepare a material having more excellent bioactivity, and the structure of the compound 5 obtained thus was determined. […]

[2] = tested on: C3H/10T1/2 cells; experiment: Adipocyte differentiation inhibitory ability (Oil Red O staining); type: cell-based, mouse
Method: C3H/10T1/2 cells, which are mouse mesenchymal progenitor cells purchased from ATCC, were diluted in DMEM (Dulbecco's Modified Eagle Medium) medium containing 5.958 g/L HEPES, 3.7 g/L sodium bicarbonate and 10% FBS (fetal bovine serum), and cultured in 24-well culture plates at a density of 4×10^4 cells/well, in the presence of 5% CO2 at 37° C. for 2 days. When the cultured cells were grown to 90˜100% confluency in the culture plates, the cells were cultured in DMEM medium containing 10% FBS, to which 5μ/ml insulin, 1 μM dexamethason, and 5 μM troglitazone were added, in the presence of 5% CO2 at 37° C. for 8 days, to induce differentiation into adipocyte. The medium was exchanged every other day during differentiation. The C3H/10T1/2 cell line, in which differentiation into the adipocyte was induced, was fixed with 3.7% formaldehyde at room temperature for 30 minutes. An oil Red O solution dissolved in isopropanol at a concentration of 0.5% was diluted in distilled water at a ratio of 6:4, filtered through a 0.2 μm filter, and poured to the fixed cell line, which was stained for 1 hour. In order to observe only the cells differentiated into the adiopocyte, the dye solution was removed and the cells were washed with distilled water two times.
116V specimen extracted from sponge was dissolved in DMSO solvent, and allowed to treat C3H/10T1/2 cell lines, which are mouse mesenchymal progenitor cells, at concentrations of 1, 2.5, 5, 10, and 20 μg/ml. […] Then, after specimens of the compound 1 (1163), the compound 2 (1162), the compound 3 (1161), and the compound 4 (1164), which were purely separated from the 116V and 116VI species were obtained, the same experiment was performed. […] Remarkable cytotoxicity was not observed in each of the specimens during differentiation of adipocytes (FIG. 8).

[3] = Cytotoxicity, Cell Titer-Glo cell viability; type: cell-based, mouse; conditions: primary mouse spleen cells; mouse spleen cells, 16-18 hours
Method: (§1) Spleen cells of a mouse were used in measurement of cytotoxicity in […] cells. The spleen cells of the mouse were prepared as follows. The spleen from a 5˜6-week age mouse was finely minced, and only floating spleen cells were filtered through a net having a pore size of 100 μm. Erythrocytes mixed with the spleen cells were lysed by using erythrocyte lysis buffer, and then removed by centrifugation, precipitation and washing of the cells. The prepared spleen cells were seeded in 96-well plates at a concentration of 5×10^5 cells/well. Here, the spleen cells were treated with the compound of Formula 1 for measurement of toxicity according to the concentrations. The next day, the cells cultured for 16-18 hours were treated with Cell Titer-Glo Luminescent Cell Viability Assay (Promega), and after 10 minutes, cell viability was measured using the luminometer.

[4] = tested on: mouse spleen cells; experiment: Cytotoxicity, Cell Titer-Glo cell viability; type: cell-based; conditions: mouse spleen cells vs LXR
Method: as §1

[5] = tested on: C57BL/6 mice; experiment: Fatty liver inhibitory efficacy in T0901317-induced fatty liver model; type: in vivo, mouse
Excerpt: In order to verify the fatty liver inhibitory efficacy of the compound 1 developed in the present invention, C57BL/6 mice were used in this experiment. A fatty liver model was constructed by administering T0901317, which generates fatty liver, to 10-week age C57BL/6 mice while feeding the C57BL/6 mice with general feed-additive. The fatty liver inhibitory efficacy of the compound 1 was observed by orally administering this compound. A mouse fed with 0.75% of only carboxymethylcellulose, as a medication deliver, was used for a negative control group, and a mouse fed with only TO901317 was used for a positive control group. In addition, in order to analyze gene expression of C57BL/6 mouse liver, the mouse livers of the negative control group, the positive control group, and the treatment group were extracted and treated with Trizol, to obtain RNAs. The obtained RNAs were quantified using an absorption spectrometer (Nanodrop), and cDNAs were obtained from RNAs having the same amount among respective groups through an RT-PCR method using oligo dT and reverse transcriptase. The real-time polymerase chain reaction was performed using cDNAs, which were obtained for analysis of mRNA change among groups, as templates, and using primers of transporter genes related to fat synthesis and inflow of fat to the liver. […] Accordingly, the compounds of the present invention and derivatives thereof are expected to play a very innovative role in treatment of alcoholic fatty liver, non-alcoholic fatty liver, and fatty liver due to viral infection.

[6] = Solubility in organic solvents; type: physicochemical

With `CC(C)=CCC/C(C)=C/[C@H]1CC(C)=C[C@@]2(C=C(CO)[C@@H]3CC(=O)C(C)=C[C@@H]3O2)O1` [Compound 1] the “transcription degree of differentiation mark factors (Runx2, Osteocalcin, Msx2, etc.)” value [1] was “remarkably increased”, the “adipocyte differentiation inhibitory ability at low concentration” value ([2]; C3H/10T1/2, 1 μg/ml) was “remarkable adipocyte differentiation inhibitory ability” and the adipocyte differentiation ability ([2]; C3H/10T1/2, 10 μg/ml) was “remarkably decreased”. For the same compound, the IC50 [3] was 63 µM, the “cytotoxicity IC50 compared with antagonistic concentration against LXR” value [4] was at least 1000 times and the “liver expression of fatty acid synthetic genes and transporter genes of transporting fats to the liver” value ([5]; mouse liver, real-time PCR) was “inhibits the expression”. The “fatty liver inhibitory efficacy” value ([5]; oral administration, T0901317-induced fatty liver, C57BL/6 mice) was “very superior fatty liver inhibitory efficacy”, the “body weight among the treatment group and the control groups” value ([5]; oral administration, fatty liver-induced C57BL/6 mice) was “no difference in body weight” and the Solubility [6] was “Easily Dissolved in Organic Solvent of Acetone, Methanol, DMSO, etc”.
